Assay results reported in US6306879A, “Stable aqueous solution of 3-(1-oxo-1,3-dihydroisoindol-2-yl)-piperidine-2-6-dione” (Gruenenthal GmbH, priority 1999, dated 2001).

Experiments:
[1] = test system: TNF-α production of LPS-activated monocytes; assay: TNF-α production of LPS-activated monocytes (sandwich ELISA); assay type: cell-based; conditions: LPS-activated human monocytes
Procedure: (§1) In order to investigate the immunomodulatory efficacy of the solutions produced, human monocytes were isolated from peripheral blood mononuclear cells (PBMCs) and were activated with bacterial LPS (lipopolysaccharide). The concentration of TNF-α and IL-12 in the supernatant liquors from all cell cultures was determined by means of sandwich ELISAs (Biosource Europe, Fleurus, Belgium).

[2] = test system: IL-12 production of LPS-activated monocytes; assay: IL-12 production of LPS-activated monocytes (sandwich ELISA); assay type: cell-based; conditions: LPS-activated human monocytes
Procedure: as §1

[3] = Stability testing of the EM 12 solution over 2 weeks; assay type: physicochemical; conditions: after 2 weeks; 200 μg/ml in 5% glucose, pH 5.5, room temperature
Description: The solution was stored at room temperature. The pH of the final solution was 5.5.
Portions of the solutions were repeatedly taken as samples for analysis over a period of 2 weeks.

[4] = Spontaneous hydrolysis of EM 12 in aqueous solution; assay type: physicochemical
[5] = Arch. Pharm. 321, 371 (1988); cited from earlier work
[6] = test system: severe aphthous stomatitis; conditions: cited from earlier work
[7] = test system: cutaneous lupus erythematodes, pyoderma gangrenosum, urogenital ulcers in Bechet's syndrome, ulcerations in those infected with HIV; conditions: without resulting in general immunosuppression; cited from earlier work

| EM 12 present in solution after storage [3] | spontaneous hydrolysis ([4]; aqueous EM 12 solution, pH less than or equal to 5.5) | Structure (SMILES) | TNF-α concentration in supernatant ([1]; EM 12 2 μg/ml) | TNF-α concentration in supernatant ([1]; EM 12 10 μg/ml) | IL-12 concentration in supernatant ([2]; EM 12 2 μg/ml) | IL-12 concentration in supernatant ([2]; EM 12 10 μg/ml) | biological efficacy after storage [3] | tendency to undergo spontaneous hydrolysis ([4]; aqueous solutions) | solubility in water [5] | efficacy vs classical immunosuppressants [6] | efficacy [7] |
| --- | --- | --- | --- | --- | --- | --- | --- | --- | --- | --- | --- |
| still present | does not occur | O=C1CCC(N2Cc3ccccc3C2=O)C(=O)N1 (racemic) [EM 12, 3-(1-oxo-1,3-dihydroisoindol-2-yl)-piperidine-2,6-dione] | 9915 pg/mL | 9548 pg/mL | 528 pg/mL | 464 pg/mL | retained its full biological efficacy | tendency of EM 12 to undergo spontaneous hydrolysis |  |  |  |
|  |  | O=C1CCC(N2C(=O)c3ccccc3C2=O)C(=O)N1 (centres unmarked) [Thalidomide, 2-(2,6-dioxo-piperidin-3-yl)-isoindole-1,3-dione] |  |  |  |  |  |  | low | superior | good efficacy |
